This is an account of results in the Kinase Knowledgebase extract (Sharma et al. 2016).

SMILES strings stand for the structures. pIC50, pKd, pKi: −log10 of the molar value. Several values for one entry are separate records, joined by “and”; a condition that tells them apart may be missing. Equal entries are not always repeated.

PIK3CG (human), sequence (P48736 whole entry, looked up): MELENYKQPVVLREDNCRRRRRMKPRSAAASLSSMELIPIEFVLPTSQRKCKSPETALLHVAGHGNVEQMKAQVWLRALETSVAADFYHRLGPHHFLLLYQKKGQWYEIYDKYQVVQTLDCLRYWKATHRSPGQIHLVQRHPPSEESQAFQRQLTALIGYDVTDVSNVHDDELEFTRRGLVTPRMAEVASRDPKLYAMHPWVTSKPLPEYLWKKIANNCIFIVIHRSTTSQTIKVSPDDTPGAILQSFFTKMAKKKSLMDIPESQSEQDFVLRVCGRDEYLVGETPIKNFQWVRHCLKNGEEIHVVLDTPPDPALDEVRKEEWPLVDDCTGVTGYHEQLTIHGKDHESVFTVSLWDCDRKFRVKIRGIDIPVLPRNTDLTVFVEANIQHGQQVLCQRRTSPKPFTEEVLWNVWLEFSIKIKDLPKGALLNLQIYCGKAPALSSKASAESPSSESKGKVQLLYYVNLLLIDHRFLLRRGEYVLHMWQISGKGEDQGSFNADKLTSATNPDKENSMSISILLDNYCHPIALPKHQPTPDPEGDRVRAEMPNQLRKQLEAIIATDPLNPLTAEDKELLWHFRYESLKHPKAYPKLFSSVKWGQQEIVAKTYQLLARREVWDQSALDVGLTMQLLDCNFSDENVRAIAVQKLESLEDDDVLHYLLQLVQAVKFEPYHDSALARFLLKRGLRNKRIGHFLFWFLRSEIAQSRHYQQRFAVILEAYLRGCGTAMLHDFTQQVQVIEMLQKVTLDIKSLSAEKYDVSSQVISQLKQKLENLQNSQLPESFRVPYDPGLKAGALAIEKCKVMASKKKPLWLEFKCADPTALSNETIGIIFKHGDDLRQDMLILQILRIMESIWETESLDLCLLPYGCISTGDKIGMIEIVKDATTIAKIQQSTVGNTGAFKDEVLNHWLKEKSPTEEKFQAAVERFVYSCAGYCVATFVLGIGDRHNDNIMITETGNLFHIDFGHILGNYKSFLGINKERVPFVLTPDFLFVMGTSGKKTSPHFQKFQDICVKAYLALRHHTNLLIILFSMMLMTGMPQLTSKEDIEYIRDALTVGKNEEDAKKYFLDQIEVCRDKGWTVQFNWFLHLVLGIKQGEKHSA
ROCK2 (human), sequence (O75116 whole entry, looked up): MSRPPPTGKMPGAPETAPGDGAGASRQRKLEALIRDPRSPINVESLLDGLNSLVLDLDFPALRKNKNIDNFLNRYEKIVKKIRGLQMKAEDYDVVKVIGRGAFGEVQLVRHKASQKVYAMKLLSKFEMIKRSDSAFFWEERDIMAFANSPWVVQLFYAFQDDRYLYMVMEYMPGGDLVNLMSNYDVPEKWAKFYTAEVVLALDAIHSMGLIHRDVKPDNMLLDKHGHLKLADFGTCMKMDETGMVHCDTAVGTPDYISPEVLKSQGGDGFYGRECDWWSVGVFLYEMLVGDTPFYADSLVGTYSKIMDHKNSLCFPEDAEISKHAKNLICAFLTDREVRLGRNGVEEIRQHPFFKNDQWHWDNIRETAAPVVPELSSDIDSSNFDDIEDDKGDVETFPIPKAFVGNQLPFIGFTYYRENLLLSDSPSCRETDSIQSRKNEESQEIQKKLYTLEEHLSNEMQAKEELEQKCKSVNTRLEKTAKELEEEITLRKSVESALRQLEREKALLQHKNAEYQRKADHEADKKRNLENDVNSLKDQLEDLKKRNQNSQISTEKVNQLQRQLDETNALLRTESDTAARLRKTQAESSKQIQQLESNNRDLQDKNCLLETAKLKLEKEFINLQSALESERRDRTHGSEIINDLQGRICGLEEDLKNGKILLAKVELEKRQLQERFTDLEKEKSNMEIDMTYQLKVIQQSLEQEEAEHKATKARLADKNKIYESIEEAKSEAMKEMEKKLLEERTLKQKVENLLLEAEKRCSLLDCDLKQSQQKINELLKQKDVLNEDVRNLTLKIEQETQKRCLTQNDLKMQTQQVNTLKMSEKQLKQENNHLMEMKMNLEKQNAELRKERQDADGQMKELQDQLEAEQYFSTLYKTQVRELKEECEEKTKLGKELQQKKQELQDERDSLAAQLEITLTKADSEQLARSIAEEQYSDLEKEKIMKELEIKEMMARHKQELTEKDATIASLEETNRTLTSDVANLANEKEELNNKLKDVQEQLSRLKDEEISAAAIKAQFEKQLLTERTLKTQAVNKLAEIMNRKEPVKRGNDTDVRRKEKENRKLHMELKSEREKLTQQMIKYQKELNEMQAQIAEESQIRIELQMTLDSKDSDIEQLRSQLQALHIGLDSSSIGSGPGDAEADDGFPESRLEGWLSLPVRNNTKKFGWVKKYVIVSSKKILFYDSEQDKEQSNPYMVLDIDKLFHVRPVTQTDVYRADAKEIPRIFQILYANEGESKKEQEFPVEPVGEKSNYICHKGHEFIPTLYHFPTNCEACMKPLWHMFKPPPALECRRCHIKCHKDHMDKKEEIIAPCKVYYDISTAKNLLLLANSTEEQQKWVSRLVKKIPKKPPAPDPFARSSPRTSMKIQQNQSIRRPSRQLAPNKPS

In one test the target is MAPK14 (human) (UniProt Q16539). As to the kind of experiment: Enzyme Assay. The following applies: concentration not given here.
MAPK14 (human), sequence (Q16539 whole entry, looked up): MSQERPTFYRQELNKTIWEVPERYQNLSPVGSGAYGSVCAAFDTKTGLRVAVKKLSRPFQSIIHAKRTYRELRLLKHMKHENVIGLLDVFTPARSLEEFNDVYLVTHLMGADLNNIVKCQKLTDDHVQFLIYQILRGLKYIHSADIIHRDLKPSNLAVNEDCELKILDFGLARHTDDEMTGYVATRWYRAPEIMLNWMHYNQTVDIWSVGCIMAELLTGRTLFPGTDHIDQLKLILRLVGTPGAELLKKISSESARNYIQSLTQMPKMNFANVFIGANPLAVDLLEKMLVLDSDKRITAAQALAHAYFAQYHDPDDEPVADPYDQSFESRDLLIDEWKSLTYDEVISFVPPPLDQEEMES
Turning to `CN[C@@H]1C[C@H]2O[C@@](C)([C@@H]1OC)n1c3ccccc3c3c4c(c5c6ccccc6n2c5c31)C(=O)N[C@@H]4O`, the activity came to 92%.

For `CO[C@H]1C[C@@H]2CC[C@@H](C)[C@@](O)(O2)C(=O)C(=O)N2CCCC[C@H]2C(=O)O[C@H]([C@H](C)C[C@@H]2CC[C@@H](O)[C@H](OC)C2)CC(=O)[C@H](C)C=C(C)[C@@H](O)[C@@H](OC)C(=O)[C@H](C)C[C@H](C)C=CC=CC=C1C`, the activity came out at 93%.

The next test has as its target PIK3CD (Human) (UniProt O00329). In words: Enzyme Assay.
Conditions: not given
On to `O=c1cc(N2CCOCC2)oc2c(-c3ccccc3)cccc12`, for which the negative-log IC50 (pIC50) was 6.57.

A further test concerns the target ROCK2 (human) (UniProt O75116). As to the kind of experiment: Enzyme Assay.
Conditions: not given
As to `CNC(=O)C[C@@H](NC(=O)c1ccc(-c2cn[nH]c2)c(C)c1)c1ccccc1`, the pIC50 is 7.66.

As for `Nc1cccc(CN2CC[C@@H](Nc3cccc4cnccc34)C2)c1`, the pIC50 was 7.60.

Regarding `Oc1ccc(-c2nc(-c3ccc(F)cc3)c(-c3ccncc3)[nH]2)cc1`, the pKi is 5.40.

The molecule `COc1cccc(CN(C)C(=O)Nc2ccc(-c3cn[nH]c3)cc2OCCN2CCCC2)c1` showed a negative-log IC50 (pIC50) above 9.00.

On to `COc1ccc2c(c1)CN(c1nc3c(c(Nc4ccc5[nH]ncc5c4)n1)CNC3)C2`, for which the negative logarithm of the IC50 (pIC50) was 4.61.

For the molecule `COc1cc(C(=O)NCc2cccc(Cl)c2)ccc1-c1cn[nH]c1`, the pIC50 was 7.30.

In the case of `C.COC(=O)c1ccc(C(=O)Nc2cccc(CNC3CCC(Nc4cccc5cnccc45)CC3)c2)cc1` (stereo not given), the pIC50 was above 7.00.

On to `COc1cc(C(=O)NCc2ccc(Cl)cc2)ccc1-c1cn[nH]c1`, for which the negative logarithm of the IC50 (pIC50) is 8.31.

Regarding `COc1cccc([C@@H](C)NC(=O)c2cc3ccc(-c4cn[nH]c4)cc3[nH]2)c1`, the pIC50 is 9.00.

`COCCC(=O)c1ccc(C(=O)Nc2cccc(CN3CCC(Nc4cccc5cnccc45)CC3)c2)cc1` showed a pIC50 above 7.00.

`CC(C)COC(=O)c1cccc(NC(=O)c2cccc(-c3cc(C(=O)Nc4ccncc4F)ccc3CN)c2)c1` had a pIC50 of 8.59.

The test is the same for the next values; noted with them: concentration not given here.
Consider `CN[C@@H]1C[C@H]2O[C@@](C)([C@@H]1OC)n1c3ccccc3c3c4c(c5c6ccccc6n2c5c31)C(=O)N[C@@H]4O`, for which the activity worked out at 22%.

Turning to `CO[C@H]1C[C@@H]2CC[C@@H](C)[C@@](O)(O2)C(=O)C(=O)N2CCCC[C@H]2C(=O)O[C@H]([C@H](C)C[C@@H]2CC[C@@H](O)[C@H](OC)C2)CC(=O)[C@H](C)C=C(C)[C@@H](O)[C@@H](OC)C(=O)[C@H](C)C[C@H](C)C=CC=CC=C1C`, the activity stood at 106%.

On to `O=S(=O)(NCCNC/C=C/c1ccc(Br)cc1)c1cccc2cnccc12`, for which the activity was 0%.

For the molecule `O=C1NC(=O)C(c2c[nH]c3ccccc23)=C1c1c[nH]c2ccccc12`, the activity amounted to 100%.

Another test concerns the target PIK3CA (human) (UniProt P42336). As to the kind of experiment: Inhibition of PIK3CA Kinase Activity.
Conditions: not given
The molecule `N=C1NC(=O)/C(=C/c2ccc3c(c2)OCO3)S1` had a pIC50 of 4.70.

In another test the target is PIK3CD (Human) (UniProt O00329). In words: Inhibition of PIK3CD Kinase Activity.
PIK3CD (Human), sequence (O00329 whole entry, looked up): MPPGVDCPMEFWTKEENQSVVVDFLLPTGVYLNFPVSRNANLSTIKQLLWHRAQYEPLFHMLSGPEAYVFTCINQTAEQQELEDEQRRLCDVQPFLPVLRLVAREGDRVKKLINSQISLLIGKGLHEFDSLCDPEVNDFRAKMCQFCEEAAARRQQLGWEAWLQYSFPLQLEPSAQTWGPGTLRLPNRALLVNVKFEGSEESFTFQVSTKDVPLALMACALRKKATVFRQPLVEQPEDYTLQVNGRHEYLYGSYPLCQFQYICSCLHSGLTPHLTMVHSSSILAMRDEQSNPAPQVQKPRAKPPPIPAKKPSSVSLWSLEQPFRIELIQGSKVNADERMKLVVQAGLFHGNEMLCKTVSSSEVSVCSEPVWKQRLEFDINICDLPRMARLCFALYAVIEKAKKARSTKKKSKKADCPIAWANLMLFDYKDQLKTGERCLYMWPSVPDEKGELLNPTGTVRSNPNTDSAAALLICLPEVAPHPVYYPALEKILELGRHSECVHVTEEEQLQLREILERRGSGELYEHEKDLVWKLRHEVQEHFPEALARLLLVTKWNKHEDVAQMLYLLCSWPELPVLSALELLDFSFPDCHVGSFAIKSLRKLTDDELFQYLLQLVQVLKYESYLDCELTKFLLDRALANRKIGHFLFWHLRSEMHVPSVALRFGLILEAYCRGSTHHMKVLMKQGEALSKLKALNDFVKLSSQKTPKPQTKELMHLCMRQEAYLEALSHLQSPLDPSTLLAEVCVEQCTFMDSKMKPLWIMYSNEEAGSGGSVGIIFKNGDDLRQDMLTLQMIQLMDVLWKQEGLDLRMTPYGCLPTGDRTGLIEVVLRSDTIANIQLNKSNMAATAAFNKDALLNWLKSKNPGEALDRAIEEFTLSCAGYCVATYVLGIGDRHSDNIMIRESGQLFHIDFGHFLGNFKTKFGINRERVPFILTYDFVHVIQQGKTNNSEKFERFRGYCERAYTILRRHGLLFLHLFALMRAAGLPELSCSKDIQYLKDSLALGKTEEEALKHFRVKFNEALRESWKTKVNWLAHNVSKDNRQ
Conditions: not given
`Fc1ccc(Cl)c(-c2nc3c(Cl)cccc3cc2CNc2ncnc3[nH]cnc23)c1`: the pIC50 was 7.15.

`O=C1NC(=O)/C(=C/c2ccc3cc(F)oc3c2)S1` gave a negative-log IC50 (pIC50) of 4.70.

For `Cc1ccccc1-c1nc2c(C)cccc2cc1COc1ncnc2[nH]cnc12`, the pIC50 is 7.57.

`CN1C(=O)COc2ccc(/C=C3\SC(=O)NC3=O)cc21` showed a pIC50 of 4.70.

Turning to `N=C1NC(=O)/C(=C/c2ccc3c(c2)OCO3)S1`, the negative logarithm of the IC50 (pIC50) is 4.70.

`O=C1NC(=O)/C(=C/c2ccc3c(c2)NCCO3)S1` gave a negative logarithm of the IC50 (pIC50) of 4.70.

As for `Nc1ncnc2c1c(I)nn2Cc1cc2c(Cl)cccc2nc1-c1ccccc1Cl`, the pIC50 is 7.46.

Consider `C[C@H](Nc1ncnc2[nH]cnc12)c1cc2ccc(F)cc2nc1-c1cccnc1`, for which the pIC50 was 7.64.

For `C[C@H](Nc1ncnc2[nH]cnc12)c1cc2cccc(Cl)c2nc1-c1cc(F)ccc1Cl`, the negative logarithm of the IC50 (pIC50) is 8.10.

Molecule `CN1CCC(c2ccccc2CC(C)(C)Nc2nc(N3CCOCC3)nc(-n3c(C(F)F)nc4ccccc43)n2)C1` (stereo not given) showed a pIC50 above 7.00.

On to `O=C1NC(=O)/C(=C/c2ccc3c(c2)OCCO3)S1`, for which the negative logarithm of the IC50 (pIC50) is 4.70.

On to `O=c1cc(N2CCOCC2)oc2c(-c3ccccc3)cccc12`, for which the pIC50 is 5.99.

`O=C1NC(=S)S/C1=C\c1ccc2c(c1)OCO2` had a pIC50 of 4.70.

The target of another test is PIK3CA (human) (UniProt P42336). In words: Assessment of PIK3CA Kinase Activity.
PIK3CA (human), sequence (P42336 whole entry, looked up): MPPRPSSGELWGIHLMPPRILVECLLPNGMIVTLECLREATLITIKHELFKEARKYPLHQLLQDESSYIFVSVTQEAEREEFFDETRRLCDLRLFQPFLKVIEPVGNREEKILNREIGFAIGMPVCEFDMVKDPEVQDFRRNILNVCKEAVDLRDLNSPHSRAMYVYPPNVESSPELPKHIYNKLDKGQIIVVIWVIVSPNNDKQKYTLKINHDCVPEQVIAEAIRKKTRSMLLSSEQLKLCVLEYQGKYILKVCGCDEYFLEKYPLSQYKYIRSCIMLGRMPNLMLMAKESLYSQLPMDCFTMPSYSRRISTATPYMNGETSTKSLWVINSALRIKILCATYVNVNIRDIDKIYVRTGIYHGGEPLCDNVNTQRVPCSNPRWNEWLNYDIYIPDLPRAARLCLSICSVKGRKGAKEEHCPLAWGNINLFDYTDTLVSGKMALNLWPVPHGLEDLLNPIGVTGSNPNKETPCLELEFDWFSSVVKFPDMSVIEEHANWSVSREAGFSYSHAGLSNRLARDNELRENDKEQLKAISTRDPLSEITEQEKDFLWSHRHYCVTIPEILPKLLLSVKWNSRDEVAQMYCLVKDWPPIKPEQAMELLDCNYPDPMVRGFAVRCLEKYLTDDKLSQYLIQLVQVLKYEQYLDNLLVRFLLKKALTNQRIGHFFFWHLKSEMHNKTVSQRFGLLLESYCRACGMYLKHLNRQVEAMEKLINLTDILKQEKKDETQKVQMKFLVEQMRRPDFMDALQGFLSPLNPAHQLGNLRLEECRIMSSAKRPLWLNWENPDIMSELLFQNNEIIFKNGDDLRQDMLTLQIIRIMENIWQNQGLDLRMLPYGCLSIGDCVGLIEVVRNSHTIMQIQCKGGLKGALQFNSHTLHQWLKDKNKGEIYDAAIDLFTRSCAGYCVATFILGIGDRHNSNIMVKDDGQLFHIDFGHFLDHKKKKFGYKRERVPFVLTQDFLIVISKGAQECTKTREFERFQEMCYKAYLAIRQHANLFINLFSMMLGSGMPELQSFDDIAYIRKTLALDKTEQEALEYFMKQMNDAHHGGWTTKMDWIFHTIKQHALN
Conditions: not given
The molecule `O=c1n(Cc2ccccc2)c2nc(-c3cccc(O)c3)nc(C3=CCOCC3)c2n1Cc1ccccc1` gave a negative logarithm of the IC50 (pIC50) of 5.62.

With `O=C(NCCO)Oc1ccc(-c2nc(N3CCOCC3)c3ccn(CC(F)(F)F)c3n2)cc1`, the negative logarithm of the IC50 (pIC50) was 6.24.

Molecule `CCNC(=O)Oc1nc2cc(-c3nc(N4CCOCC4)c4ccn(CC(F)(F)F)c4n3)ccc2[nH]1` gave a negative-log IC50 (pIC50) of 5.74.

In the case of `O=C(Nc1ccc(-c2nc(N3CCOCC3)nc(N3CCOCC3)n2)cc1)NC1CCNCC1`, the pIC50 was 5.82.

`O=C(Nc1ccc(-c2nc(N3CCOCC3)nc(N3CCOCC3)n2)cc1)Nc1cccs1` gave a negative-log IC50 (pIC50) of 8.70.

For `O=C(Nc1ccc(-c2nc(N3CCOCC3)nc(N3CCOCC3)n2)cc1)Nc1ccc(F)cc1F`, the negative-log IC50 (pIC50) is 7.22.

As for `Oc1cncc(-c2nc(C3=CCOCC3)c3ncn(C4CCN(Cc5cncc(Br)c5)CC4)c3n2)c1`, the pIC50 was 5.87.

A further test concerns the target PIK3CG (human) (UniProt P48736). As to the kind of experiment: Assessment of PIK3CG Kinase Activity.
Conditions: not given
In the case of `COc1ccc2sc(C(=O)Nc3nnn[nH]3)c(Sc3cccc(Cl)c3Cl)c2c1`, the pIC50 was 5.46.

In the case of `CCOC(=O)c1cc(Nc2nc(C)c3cc(F)c(=O)n(C4CCCC4)c3n2)cn1CCc1ccccc1`, the negative logarithm of the IC50 (pIC50) was 6.80.

The molecule `O=c1n(Cc2ccccc2)c2nc(-c3cccc(O)c3)nc(C3=CCOCC3)c2n1Cc1ccccc1` showed a pIC50 of 5.79.

`CNS(=O)(=O)c1cncc(-c2ccc3nc(NC(C)=O)nn3c2)c1` showed a pIC50 of 8.10.

Consider `COc1cc2sc(C(=O)Nc3nnn[nH]3)c(SCCc3ccccc3)c2cc1OC`, for which the pIC50 was 6.28.

Take `O=C(NCCO)Oc1ccc(-c2nc(N3CCOCC3)c3ccn(CC(F)(F)F)c3n2)cc1`: the pIC50 is 5.76.

The molecule `CCNC(=O)Oc1nc2cc(-c3nc(N4CCOCC4)c4ccn(CC(F)(F)F)c4n3)ccc2[nH]1` showed a pIC50 of 6.68.

As for `Cc1nc(Nc2cc(C(=O)O)n(CCc3ccccc3)c2)nc2c1ccc(=O)n2C`, the pIC50 is 6.83.

For the molecule `O=C(Nc1ccc(-c2nc(N3CCOCC3)nc(N3CCOCC3)n2)cc1)NC1CCNCC1`, the pIC50 is 5.13.

Take `O=C(Nc1ccc(-c2nc(N3CCOCC3)nc(N3CCOCC3)n2)cc1)Nc1cccs1`: the negative logarithm of the IC50 (pIC50) was 7.64.

Molecule `COc1cc2c(Sc3cccc(Cl)c3)c(C(=O)Nc3nnn[nH]3)sc2cc1C` gave a pIC50 of 6.77.

`CCOC(=O)c1cc(Nc2nc(C)c3ccc(=O)n(C)c3n2)cn1CCc1ccccc1` gave a pIC50 of 7.20.

Take `COc1ccc(C2=NNC(=O)C2=NNc2ccccc2)cn1`: the pKi was 6.27.

As for `O=C(Nc1ccc(-c2nc(N3CCOCC3)nc(N3CCOCC3)n2)cc1)Nc1ccc(F)cc1F`, the pIC50 was 6.28.

`COc1ccc2sc(C(=O)Nc3nnn[nH]3)c(Sc3ccoc3C)c2c1` had a negative-log IC50 (pIC50) of 5.66.

Molecule `COc1ccc(C2=NNC(=O)C2=NNc2cccnc2)cc1` gave a negative logarithm of the Ki (pKi) of 6.00.

Consider `Cc1nc(Nc2cc(C(=O)O)n(CCc3ccccc3)c2)nc2c1cc(F)c(=O)n2C1CCCC1`, for which the negative-log IC50 (pIC50) is 7.82.

Molecule `CC(=O)Nc1nc(C)c(-c2ccc(S(C)(=O)=O)cn2)s1` showed a pIC50 of 5.74.

Turning to `Oc1cncc(-c2nc(C3=CCOCC3)c3ncn(C4CCN(Cc5cncc(Br)c5)CC4)c3n2)c1`, the pIC50 is 5.17.

Turning to `COC(=O)Nc1nc2ccc(C(=O)c3cccs3)cc2[nH]1`, the pKd was 5.82.

Molecule `COc1cc2sc(C(=O)Nc3nnn[nH]3)c(SCCc3ccccc3)c2cc1C` gave a pIC50 of 6.67.

For `CC(=O)Nc1nc(C)c(-c2ccc(S(=O)(=O)N[C@H](CO)c3ccccc3)o2)s1`, the negative logarithm of the Ki (pKi) is above 7.00.

As to `CCOc1ccc2sc(C(=O)Nc3nnn[nH]3)c(SCCc3ccccc3)c2c1`, the pIC50 was 5.55.

A further test concerns the target PIK3CD (Human) (UniProt O00329). In words: Assessment of PIK3CD Kinase Activity.
Conditions: not given
`Cc1ncc2c(Cl)cc(C(C)Nc3ncnc4[nH]cnc34)c(-c3cccc(F)c3)n12` (stereo not given) had a pIC50 of at least 7.30.

For the molecule `CC(Nc1ncnc(N)c1C#N)c1nc2ccc(F)cc2c([S+]([O-])CCO)c1-c1ccccc1` (stereo not given), the pKi was 8.74 and 8.61.

`CC(Nc1ncnc(N)c1C#N)c1nc2ccc(F)cc2c(C(=O)N(C)C)c1-c1ccccn1` (stereo not given) gave a negative-log Ki (pKi) of 8.11.

`Cc1c(N2CCN(C(=O)N(C)C)CC2)nc2cc(F)cc(F)c2c1Nc1cncc(N2CCOCC2)c1C(=O)N(C)C`: the negative logarithm of the Ki (pKi) was 7.09.

The molecule `CCc1cccn2c(-c3cccc(F)c3)c(C(C)Nc3ncnc4[nH]cnc34)nc12` (stereo not given) had a pIC50 of 6.00 to 6.30.

On to `Cc1c(-c2ccccc2[S+](C)[O-])nc2cc(F)cc(F)c2c1Nc1cncc(N2CCOCC2)c1` (stereo not given), for which the negative logarithm of the Ki (pKi) was 8.41.

`CC(Nc1ncnc2[nH]cnc12)c1cc(Cl)c2cncn2c1-c1cccc(F)c1` (stereo not given): the negative-log IC50 (pIC50) was at least 7.30.

The molecule `Cc1c(-c2ccccc2[S+](C)[O-])nc2cc(F)cc(F)c2c1Nc1cc(N2CCOCC2)cnc1N1CCOCC1` (stereo not given) showed a negative logarithm of the Ki (pKi) of 7.29.

Usually pIC50 stands for the negative decadic logarithm of the IC50, by convention in mol/L. One may read the pKi as −log10 of the Ki, conventionally taken in molar units. Lower therefore signals a high Ki. The pKd is −log10 of the Kd, conventionally taken in molar units. Read a high pKd as a small Kd.
